In US20060069132A1, “Azolecarboxamide herbicides” (priority 2004, published 2006):

How the values were obtained:
[1] = system: corn; assay: Test C pre-/postemergence herbicide test; format: in vivo, Zea mays
Outline: (§1)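 Seeds were planted and sprayed preemergence with test chemicals in a non-phytotoxic solvent mixture containing surfactant; postemergence treatments went onto plants 2 to 18 cm tall (1- to 4-leaf stage). After 12 to 14 days in a greenhouse, injury was rated visually against untreated controls on a 0–100 scale.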

[2] = system: johnsongrass; assay: Test C pre-/postemergence herbicide test; format: in vivo, Sorghum halepense
Outline: as §1

[3] = system: common ragweed; assay: Test C pre-/postemergence herbicide test; format: in vivo, Ambrosia elatior; design: key to Plant response rating, Ragweed: 0 = no effect, 100 = complete control
Outline: as §1

[4] = system: ducksalad; assay: Test C flooded paddy test; format: in vivo, Heteranthera limosa; details: for Plant response rating, Ducksalad: 500 g ai/ha, visual rating after 12 to 14 days
[5] = system: giant foxtail; assay: Test C pre-/postemergence herbicide test; format: in vivo, Setaria faberi
Outline: as §1

[6] = system: Surinam grass; assay: Test C pre-/postemergence herbicide test; format: in vivo, Urochloa decumbens
Outline: as §1

[7] = system: morningglory; assay: Test C pre-/postemergence herbicide test; format: in vivo, Ipomoea coccinea; design: key to Plant response rating, Morningglory: 0 = no effect, 100 = complete control
Outline: as §1

[8] = system: smallflower umbrella sedge; assay: Test C flooded paddy test; format: in vivo, Cyperus difformis; details: for Plant response rating, Sedge, Umbrella: 500 g ai/ha, visual rating after 12 to 14 days
[9] = system: barnyardgrass; assay: Test C flooded paddy test; format: in vivo, Echinochloa crus-galli; details: for Plant response rating, Barnyardgrass: 500 g ai/ha, visual rating after 12 to 14 days
Outline: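 Postemergence sprays applied to plants 2 to 18 cm tall (1- to 4-leaf stage); paddy species grown to 2-leaf stage under flooding. After 12 to 14 days in greenhouse, visual rating versus untreated controls on 0–100 scale (0 no effect, 100 complete control).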

[10] = system: lambsquarters; assay: Test C pre-/postemergence herbicide test; format: in vivo, Chenopodium album
Outline: as §1

[11] = system: soybean; assay: Test C pre-/postemergence herbicide test; format: in vivo, Glycine max
Outline: as §1

[12] = system: yellow nutsedge; assay: Test C pre-/postemergence herbicide test; format: in vivo, Cyperus esculentus
Outline: as §1

[13] = system: eastern black nightshade; assay: Test C pre-/postemergence herbicide test; format: in vivo, Solanum ptycanthum; details: preemergence
From the text: Seeds of plant species selected from bermudagrass (Cynodon dactylon (L.) Pers.), Surinam grass (Urochloa decumbens (Staph) R. D. Webster, previously named Brachiaria decumbens Stapf), cocklebur (Xanthium strumarium L.), corn (Zea mays L.), large crabgrass (Digitaria sanguinalis (L.) Scop.), woolly cupgrass (Eriochloa villosa (Thunb.) Kunth), giant foxtail (Setaria faberi Herrm.), goosegrass (Eleusine indica (L.) Gaertn.), johnsongrass (Sorghum halepense (L.) Pers.), kochia (Kochia scoparia (L.) Schrad.), lambsquarters (Chenopodium album L.), morningglory (Ipomoea coccinea L.), eastern black nightshade (Solanum ptycanthum Dunal), yellow nutsedge (Cyperus esculentus L.), pigweed (Amaranthus retroflexus L.), common ragweed (Ambrosia elatior L.), soybean (Glycine max (L.) Merr.), common (oilseed) sunflower (Helianthus annuus L.) and velvetleaf (Abutilon theophrasti Medik.) were planted and treated preemergence with test chemicals formulated in a non-phytotoxic solvent mixture which included a surfactant.
At the same time, plants selected from these crop and weed species and also winter barley (Hordeum vulgare L.), blackgrass (Alopecurus myosuroides Huds.), canarygrass (Phalaris minor Retz.), chickweed (Stellaria media (L.) Vill.), downy bromegrass (Bromus tectorum L.), green foxtail (Setaria viridis (L.) Beauv.), Italian ryegrass (Lolium multiflorum Lam.), wheat (Triticum aestivum L.), wild oat (Avenafatua L.) and windgrass (Apera spica-venti (L.) Beauv.) were treated with postemergence applications of some of the test chemicals formulated in the same manner. Plants ranged in height from 2 to 18 cm (1- to 4-leaf stage) for postemergence treatments. Plant species in the flooded paddy test consisted of rice (Oryza sativa), smallflower umbrella sedge (Cyperus difformis L.), ducksalad (Heteranthera limosa (Sw.) Willd.) and barnyardgrass (Echinochloa crus-galli (L.) Beauv.) grown to the 2-leaf stage for testing. Treated plants and controls were maintained in a greenhouse for 12 to 14 days, after which time all species were compared to controls and visually evaluated. Plant response ratings, summarized in Table C, are based on a scale of 0 to 100 where 0 is no effect and 100 is complete control. A dash (-) response means no test result.

[14] = Postemergence, 250 g ai/ha, scale 0 to 100, 0 no effect, 100 complete control
[15] = postemergence, 125 g ai/ha, scale 0 to 100
[16] = postemergence, 62 g ai/ha, scale 0 to 100
[17] = 125 g ai/ha, scale 0 to 100 (0 no effect, 100 complete control)
[18] = 250 g ai/ha, scale of 0 to 100, 0 is no effect, 100 is complete control
[19] = scale 0 to 100 (0 no effect, 100 complete control)
[20] = 62 g ai/ha, scale 0 to 100 (0 no effect, 100 complete control)
[21] = 31 g ai/ha, preemergence, scale 0 to 100
[22] = 125 g ai/ha, scale 0 (no effect) to 100 (complete control), visual, 12 to 14 days, preemergence
[23] = 250 g ai/ha, scale 0 to 100 (0 no effect, 100 complete control), visual, 12 to 14 days, preemergence
[24] = 125 g ai/ha, scale of 0 to 100, 0 is no effect, 100 is complete control

## CCOC(=O)c1cccc(NC(=O)c2cc(C3(C)CC3)nn2CC)c1 [Compound 295]
[1]; [14]
  Plant response rating, Corn: 15
[1]; [15]
  Plant response rating, Corn: 10
[1]; [16]
  Plant response rating, Corn: 5
[2]; [14]
  Plant response rating, Johnsongrass: 5
[2]; [15]
  Plant response rating, Johnsongrass: 5
[2]; [16]
  Plant response rating, Johnsongrass: 5
[3]; [14]
  Plant response rating, Ragweed: 40
[3]; [15]
  Plant response rating, Ragweed: 30
[3]; [16]
  Plant response rating, Ragweed: 25
[4]; 62 g ai/ha, scale 0 to 100
  Ducksalad plant response rating: 0
[4]; [17]
  Ducksalad plant response rating: 0
[4]; [18]
  Ducksalad plant response rating: 25
[4]; [19]
  Plant response rating, Ducksalad: 30
[5]; [14]
  Plant response rating, Foxtail, Giant: 40
[5]; [15]
  Plant response rating, Foxtail, Giant: 35
[5]; [16]
  Plant response rating, Foxtail, Giant: 30
[6]; [14]
  Plant response rating, Surinam Grass: 15
[6]; [15]
  Plant response rating, Surinam Grass: 5
[6]; [16]
  Plant response rating, Surinam Grass: 5
[7]; [14]
  Plant response rating, Morningglory: 30
[7]; [15]
  Plant response rating, Morningglory: 10
[7]; [16]
  Plant response rating, Morningglory: 10
[8]; 62 g ai/ha, scale 0 to 100
  Sedge, Umbrella plant response rating: 80
[8]; [17]
  Sedge, Umbrella plant response rating: 80
[8]; [18]
  Sedge, Umbrella plant response rating: 80
[8]; [19]
  Plant response rating, Sedge, Umbrella: 80
[9]; [20]
  Barnyardgrass plant response rating: 0
[9]; [17]
  Barnyardgrass plant response rating: 15
[9]; [18]
  Barnyardgrass plant response rating: 25
[9]; [19]
  Plant response rating, Barnyardgrass: 40
[10]; [14]
  Plant response rating, Lambsquarters: 50
[10]; [15]
  Plant response rating, Lambsquarters: 5
[10]; [16]
  Plant response rating, Lambsquarters: 0
[11]; [14]
  Plant response rating, Soybean: 55
[11]; [15]
  Plant response rating, Soybean: 50
[11]; [16]
  Plant response rating, Soybean: 50
[12]; [14]
  Plant response rating, Nutsedge, Yellow: 5
[12]; [15]
  Plant response rating, Nutsedge, Yellow: 5
[12]; [16]
  Plant response rating, Nutsedge, Yellow: 5

## CCOC(=O)c1cc(NC(=O)c2cc(C(C)(C)C)nn2CC)ccc1OCC [Compound 95]
[1]; [21]
  Plant response rating, Corn: 0
[1]; 62 g ai/ha, preemergence
  Plant response rating (0 = no effect, 100 = complete control), Corn: 0
[1]; [22]
  Plant response rating, Corn: 10
[1]; [23]
  Plant response rating, Corn: 20
[2]; [21]
  Plant response rating, Johnsongrass: 0
[2]; 62 g ai/ha, preemergence
  Plant response rating (0 = no effect, 100 = complete control), Johnsongrass: 0
[2]; [22]
  Plant response rating, Johnsongrass: 40
[3]; [21]
  Plant response rating, Ragweed: 10
[3]; 62 g ai/ha, preemergence
  Plant response rating (0 = no effect, 100 = complete control), Ragweed: 50
[3]; [22]
  Plant response rating, Ragweed: 80
[4]; [20]
  Ducksalad plant response rating: 10
[4]; [24]
  Ducksalad plant response rating: 25
[4]; [18]
  Ducksalad plant response rating: 75
[4]; [19]
  Plant response rating, Ducksalad: 90
[5]; [21]
  Plant response rating, Foxtail, Giant: 0
[5]; 62 g ai/ha, preemergence
  Plant response rating (0 = no effect, 100 = complete control), Foxtail, Giant: 60
[5]; [22]
  Plant response rating, Foxtail, Giant: 100
[5]; [23]
  Plant response rating, Foxtail, Giant: 100
[13]; 31 g ai/ha, scale 0 to 100
  Plant response rating, Nightshade: 90
[13]; 62 g ai/ha
  Plant response rating (0 = no effect, 100 = complete control), Nightshade: 95
[13]; 125 g ai/ha, scale 0 (no effect) to 100 (complete control), visual, 12 to 14 days
  Plant response rating, Nightshade: 95
[6]; [21]
  Plant response rating, Surinam Grass: 0
[6]; 62 g ai/ha, preemergence
  Plant response rating (0 = no effect, 100 = complete control), Surinam Grass: 0
[6]; [22]
  Plant response rating, Surinam Grass: 10
[7]; [21]
  Plant response rating, Morningglory: 0
[7]; 62 g ai/ha, preemergence
  Plant response rating (0 = no effect, 100 = complete control), Morningglory: 5
[7]; [22]
  Plant response rating, Morningglory: 10
[8]; [20]
  Sedge, Umbrella plant response rating: 85
[8]; [24]
  Sedge, Umbrella plant response rating: 90
[8]; [18]
  Sedge, Umbrella plant response rating: 95
[8]; [19]
  Plant response rating, Sedge, Umbrella: 95
[9]; [20]
  Barnyardgrass plant response rating: 20
[9]; [24]
  Barnyardgrass plant response rating: 45
[9]; [18]
  Barnyardgrass plant response rating: 55
[9]; [19]
  Plant response rating, Barnyardgrass: 60
[11]; [21]
  Plant response rating, Soybean: 0
[11]; 62 g ai/ha, preemergence
  Plant response rating (0 = no effect, 100 = complete control), Soybean: 0
[11]; [22]
  Plant response rating, Soybean: 0
[12]; [21]
  Plant response rating, Nutsedge, Yellow: 0
[12]; 62 g ai/ha, preemergence
  Plant response rating (0 = no effect, 100 = complete control), Nutsedge, Yellow: 0
[12]; [22]
  Plant response rating, Nutsedge, Yellow: 0
